Data set [1] in a line: Cytotoxicity against African green monkey Vero cells incubated for 24 hrs by MTT assay. The format is toxicity, cell-based. To be noted: chlorocebus sabaeus.
Data set [2] has as its system dengue virus type 1. The experiment in a line: Antiviral activity against DENV1 infected in African green monkey Vero cells assessed as inhibition of viral infection by virucidal assay. Format: functional, organism-based.
For data set [3], the system named is dengue virus type 2. Kind of data set: Antiviral activity against DENV2 infected in African green monkey Vero cells assessed as inhibition of viral infection by virucidal assay. Format: functional, organism-based.
Data set [4] relates to dengue virus type 3. The experiment in a line: Antiviral activity against DENV3 infected in African green monkey Vero cells assessed as inhibition of viral infection by virucidal assay. Format: functional, organism-based.
The subject of data set [5] is dengue virus type 4. Kind of data set: Antiviral activity against DENV4 infected in African green monkey Vero cells assessed as inhibition of viral infection by virucidal assay. Format: functional, organism-based.
Data set [6] can be described thus: Cytotoxicity against human A549 cells incubated for 42 hrs by MTT assay. The format is toxicity, cell-based. For orientation: Formazan colour is commonly taken as a measure of viable cells.
Data set [7] relates to West Nile virus. The experiment in a line: Antiviral activity against West Nile virus NY003356V2 infected in human A549 cells measured after 48 hrs by plaque reduction assay. The format is functional, organism-based. The note with it: NY003356V2, A549, 48 h. Background: Plaques are areas of infected cells; plaque reduction assays count them against a control.
For data set [8], the system named is dengue virus type 2. Kind of data set: Antiviral activity against DENV2 New Guinea C infected in human A549 cells measured after 48 hrs by plaque reduction assay. The format is functional, organism-based. The note with it: A549, 48 h.
Data set [9] relates to Zika virus. The experiment in a line: Antiviral activity against Zika virus Puerto Rico strain PRVABC59 infected in human A549 cells measured after 48 hrs by plaque reduction assay. The format is functional, organism-based. The note with it: Puerto Rico strain PRVABC59, A549, 48 h.
For data set [10], the system named is West Nile virus. Kind of data set: Antiviral activity against West Nile virus New York 99 infected in golden hamster BHK-21 cells co-expressing renilla luciferase assessed as inhibition of viral […] replication incubated for 24 hrs. The format is functional, organism-based. The note with it: New York 99, BHK-21, 24 h.
The nature of data set [11]: Cytotoxicity against golden hamster BHK-21 cells incubated for 24 hrs by ATP-lite assay. The format is toxicity, cell-based, Mesocricetus auratus.
The subject of data set [12] is West Nile virus. The experiment in a line: Antiviral activity against West Nile virus infected in human A549 cells measured after 42 hrs by plaque reduction assay. Format: functional, organism-based.
The test system of data set [13] is Zika virus. Kind of data set: Antiviral activity against Zika virus Puerto Rico strain PRVABC59 infected in human A549 cells measured after 42 hrs incubation under dark conditions by plaque reduction assay. Format: functional, organism-based. The note with it: Puerto Rico strain PRVABC59, A549, 42 h.
Data set [14] deals with dengue virus type 2. The experiment in a line: Antiviral activity against DENV2 infected in human A549 cells measured after 42 hrs by plaque reduction assay. The format is functional, organism-based. The note with it: A549, 42 h.
Data set [15] can be described thus: Cytotoxicity against golden hamster BHK-21 cells incubated for 24 hrs by CCK-8 assay. Format: toxicity, cell-based, Mesocricetus auratus.
Data set [16] has as its system dengue virus type 2. The experiment in a line: Antiviral activity against DENV2 infected in golden hamster BHK-21 cells preincubated with virus for 18 hrs followed by compound addition and measured after 24 hrs by plaque reduction assay. The format is functional, organism-based.
For data set [17], the system named is West Nile virus. The experiment in a line: Inhibition of West Nile virus EG101 NS2BH-NS3 protease expressed in Escherichia coli Top10 F' cells using Boc-Gly-Lys-Arg-AMC as substrate preincubated with compound for 15 mins followed by substrate addition and measured after 15 mins by fluorescence based assay. To be noted: time 30.0 min.
The target in data set [18] is Coagulation factor X (Homo sapiens, UniProt P00742). Kind of data set: Inhibition of factor Xa (unknown origin) using CH3OCO-dCha-Gly-Arg-pNA as substrate by […] plate reader analysis.
The target in data set [19] is Prothrombin (Homo sapiens, UniProt P00734). Kind of data set: Inhibition of thrombin (unknown origin) using CH3SO2-dCha-Gly-Arg-pNA as substrate by […] plate reader analysis.
Data set [20] in a line: Inhibition of Dengue virus 4 NS2B-NS3 protease using Benzoyl-Nle-Lys-Arg-Arg-AMC as substrate preincubated for 1 hrs followed by substrate addition and measured after 10 mins by fluorescence based plate reader analysis. Set-up: species or system dengue virus type 4.
In data set [21] the target is Genome polyprotein (West Nile virus) (UniProt P06935). Kind of data set: Inhibition of West Nile virus NS2B-NS3 protease using Bz-nKRR-AMC as substrate assessed as inhibition constant preincubated for 30 mins followed by substrate addition and measured after 60 mins by fluorescence based microplate reader analysis. To be noted: time 90.0 min.
Target sequence in this assay (P06935 whole entry): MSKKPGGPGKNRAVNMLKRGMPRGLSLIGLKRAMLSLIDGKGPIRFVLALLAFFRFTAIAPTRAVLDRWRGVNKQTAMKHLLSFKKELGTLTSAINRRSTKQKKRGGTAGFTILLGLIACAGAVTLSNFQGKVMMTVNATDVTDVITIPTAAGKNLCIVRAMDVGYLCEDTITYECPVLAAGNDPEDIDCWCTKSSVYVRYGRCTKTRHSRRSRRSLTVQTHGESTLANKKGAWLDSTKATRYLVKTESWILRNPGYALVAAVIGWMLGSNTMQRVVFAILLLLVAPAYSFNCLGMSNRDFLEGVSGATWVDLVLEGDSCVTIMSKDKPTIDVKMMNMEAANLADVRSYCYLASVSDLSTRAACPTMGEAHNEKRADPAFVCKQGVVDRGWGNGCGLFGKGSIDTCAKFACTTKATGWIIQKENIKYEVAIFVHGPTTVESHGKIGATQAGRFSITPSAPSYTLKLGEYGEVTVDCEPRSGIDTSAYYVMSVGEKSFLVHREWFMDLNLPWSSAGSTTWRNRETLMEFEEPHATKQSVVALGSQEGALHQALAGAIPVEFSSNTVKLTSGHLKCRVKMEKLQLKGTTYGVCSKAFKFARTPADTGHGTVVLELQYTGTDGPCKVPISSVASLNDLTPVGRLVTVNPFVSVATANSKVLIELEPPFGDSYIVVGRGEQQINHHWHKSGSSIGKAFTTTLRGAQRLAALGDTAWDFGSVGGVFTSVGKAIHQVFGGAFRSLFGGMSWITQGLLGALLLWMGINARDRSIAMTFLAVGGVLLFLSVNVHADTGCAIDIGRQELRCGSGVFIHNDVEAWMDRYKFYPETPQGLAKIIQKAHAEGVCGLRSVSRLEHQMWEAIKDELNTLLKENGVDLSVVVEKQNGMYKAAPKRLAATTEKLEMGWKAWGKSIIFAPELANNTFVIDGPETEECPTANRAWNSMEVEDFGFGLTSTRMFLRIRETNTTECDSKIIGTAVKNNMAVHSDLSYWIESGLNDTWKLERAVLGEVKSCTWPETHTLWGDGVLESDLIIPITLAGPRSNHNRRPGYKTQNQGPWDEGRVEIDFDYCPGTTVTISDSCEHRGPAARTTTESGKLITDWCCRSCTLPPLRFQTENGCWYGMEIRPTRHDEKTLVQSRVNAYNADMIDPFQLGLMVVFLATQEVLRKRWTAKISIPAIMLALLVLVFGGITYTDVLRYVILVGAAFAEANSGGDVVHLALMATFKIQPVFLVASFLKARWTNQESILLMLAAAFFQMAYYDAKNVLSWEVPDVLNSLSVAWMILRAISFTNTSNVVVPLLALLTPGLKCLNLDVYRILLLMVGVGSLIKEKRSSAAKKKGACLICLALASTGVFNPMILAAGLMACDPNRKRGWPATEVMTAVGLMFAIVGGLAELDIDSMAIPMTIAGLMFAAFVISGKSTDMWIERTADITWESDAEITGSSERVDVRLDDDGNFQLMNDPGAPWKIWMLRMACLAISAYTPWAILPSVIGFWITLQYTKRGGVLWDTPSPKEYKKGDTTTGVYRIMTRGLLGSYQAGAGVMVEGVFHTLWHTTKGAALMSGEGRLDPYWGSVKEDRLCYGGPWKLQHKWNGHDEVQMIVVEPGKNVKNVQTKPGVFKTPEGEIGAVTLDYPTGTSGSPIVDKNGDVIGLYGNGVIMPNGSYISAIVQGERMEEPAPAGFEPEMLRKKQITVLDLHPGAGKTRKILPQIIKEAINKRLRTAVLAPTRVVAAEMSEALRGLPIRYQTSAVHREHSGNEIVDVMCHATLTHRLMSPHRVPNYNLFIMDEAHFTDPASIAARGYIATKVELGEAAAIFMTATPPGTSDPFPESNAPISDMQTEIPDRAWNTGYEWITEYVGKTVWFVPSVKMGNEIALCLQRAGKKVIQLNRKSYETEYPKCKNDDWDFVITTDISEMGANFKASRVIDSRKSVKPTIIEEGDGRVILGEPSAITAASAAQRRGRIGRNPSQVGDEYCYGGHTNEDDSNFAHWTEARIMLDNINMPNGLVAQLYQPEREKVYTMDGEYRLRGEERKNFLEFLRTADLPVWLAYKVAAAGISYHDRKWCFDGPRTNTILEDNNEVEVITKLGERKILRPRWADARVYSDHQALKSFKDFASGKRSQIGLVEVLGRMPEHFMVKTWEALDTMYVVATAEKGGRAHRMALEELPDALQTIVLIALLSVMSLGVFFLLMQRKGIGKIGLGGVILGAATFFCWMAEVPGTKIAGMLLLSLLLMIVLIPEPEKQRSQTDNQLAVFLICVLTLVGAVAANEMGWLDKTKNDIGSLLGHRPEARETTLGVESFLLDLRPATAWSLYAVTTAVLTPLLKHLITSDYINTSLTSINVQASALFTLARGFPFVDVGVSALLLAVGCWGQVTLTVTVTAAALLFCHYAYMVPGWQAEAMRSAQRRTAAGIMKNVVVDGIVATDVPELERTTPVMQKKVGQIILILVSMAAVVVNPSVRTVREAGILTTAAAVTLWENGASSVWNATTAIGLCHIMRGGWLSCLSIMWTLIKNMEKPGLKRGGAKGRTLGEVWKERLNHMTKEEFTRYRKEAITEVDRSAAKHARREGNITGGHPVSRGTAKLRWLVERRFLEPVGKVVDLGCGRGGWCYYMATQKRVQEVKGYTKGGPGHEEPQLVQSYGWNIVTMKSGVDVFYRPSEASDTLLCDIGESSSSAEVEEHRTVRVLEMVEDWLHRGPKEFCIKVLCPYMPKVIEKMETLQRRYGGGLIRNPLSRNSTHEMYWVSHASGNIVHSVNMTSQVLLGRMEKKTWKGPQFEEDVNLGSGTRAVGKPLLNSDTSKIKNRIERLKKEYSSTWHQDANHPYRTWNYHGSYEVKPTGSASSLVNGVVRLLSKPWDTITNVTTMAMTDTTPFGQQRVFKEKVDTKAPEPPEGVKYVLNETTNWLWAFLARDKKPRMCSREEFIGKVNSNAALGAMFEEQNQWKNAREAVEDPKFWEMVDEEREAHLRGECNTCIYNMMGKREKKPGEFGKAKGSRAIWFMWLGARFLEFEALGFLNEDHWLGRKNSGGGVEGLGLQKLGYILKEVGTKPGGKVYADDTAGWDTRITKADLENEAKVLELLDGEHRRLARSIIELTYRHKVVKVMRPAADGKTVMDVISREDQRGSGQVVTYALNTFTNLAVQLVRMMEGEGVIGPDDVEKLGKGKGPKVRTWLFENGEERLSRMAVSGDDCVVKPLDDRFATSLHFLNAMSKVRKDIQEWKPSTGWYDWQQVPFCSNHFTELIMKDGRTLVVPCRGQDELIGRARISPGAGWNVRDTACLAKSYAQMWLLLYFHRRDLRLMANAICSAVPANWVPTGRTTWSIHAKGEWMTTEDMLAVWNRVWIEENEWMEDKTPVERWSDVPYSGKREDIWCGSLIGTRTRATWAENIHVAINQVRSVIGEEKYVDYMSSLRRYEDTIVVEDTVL
The test system of data set [22] is West Nile virus. Kind of data set: Antiviral activity against West Nile virus NY99 infected in human A549 cells measured after 48 hrs by plaque reduction assay. The format is functional, organism-based. The note with it: NY99, A549, 48 h.
Data set [23] in a line: Inhibition of DENV3 NS2B (50 to 95 residues)-NS3 (1 to 182 residues) protease expressed in Escherichia coli BL21-rosetta cells using Bz-Nle-Lys-Lys-Arg-AMC as substrate preincubated for 10 mins followed by substrate addition and measured every 30 secs. Set-up: species or system dengue virus type 3.
The target of data set [24] is Genome polyprotein (West Nile virus) (UniProt P06935). Kind of data set: Uncompetitive inhibition of recombinant West Nile virus NS2B-NS3 protease using Pyr-RTKR-AMC as substrate assessed as inhibition constant preincubated for 15 mins followed by substrate addition.
Target sequence in this assay (P06935 1371-1501 limits assumed): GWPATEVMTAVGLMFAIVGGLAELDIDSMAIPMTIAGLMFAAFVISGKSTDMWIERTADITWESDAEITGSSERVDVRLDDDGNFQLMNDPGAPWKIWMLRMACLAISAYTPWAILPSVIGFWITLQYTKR
Target sequence in this assay (P06935 1502-2120 limits assumed): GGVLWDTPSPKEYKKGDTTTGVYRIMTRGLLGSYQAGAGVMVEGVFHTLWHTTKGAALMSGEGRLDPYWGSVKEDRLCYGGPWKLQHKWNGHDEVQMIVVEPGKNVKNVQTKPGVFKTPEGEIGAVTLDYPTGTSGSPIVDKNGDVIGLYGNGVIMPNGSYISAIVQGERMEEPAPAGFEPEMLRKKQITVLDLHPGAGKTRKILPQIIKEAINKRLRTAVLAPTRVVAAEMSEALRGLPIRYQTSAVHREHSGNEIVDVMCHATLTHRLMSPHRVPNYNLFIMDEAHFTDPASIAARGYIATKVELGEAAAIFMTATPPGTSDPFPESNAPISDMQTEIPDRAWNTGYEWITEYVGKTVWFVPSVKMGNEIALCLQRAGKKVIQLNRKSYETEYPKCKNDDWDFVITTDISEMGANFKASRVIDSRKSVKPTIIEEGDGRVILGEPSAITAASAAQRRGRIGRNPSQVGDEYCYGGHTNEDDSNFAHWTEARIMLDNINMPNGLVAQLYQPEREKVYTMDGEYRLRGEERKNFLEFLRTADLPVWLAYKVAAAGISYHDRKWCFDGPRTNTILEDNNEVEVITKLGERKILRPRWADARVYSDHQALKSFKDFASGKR

*1 amine or outer side, *2 acyl side, *3 side chain or, on linkers, in order; H or OH if unused. Where a SMILES comes first, the peptide text is derived from it. [ ]: non-standard residue; d: D form. X1 = N=C(N)N[C@@H](CCCCN[*:1])C(=O)[*:2]; βAla = NCCC(=O)O

Sequence of Coagulation factor X (P00742 41-179 limits assumed): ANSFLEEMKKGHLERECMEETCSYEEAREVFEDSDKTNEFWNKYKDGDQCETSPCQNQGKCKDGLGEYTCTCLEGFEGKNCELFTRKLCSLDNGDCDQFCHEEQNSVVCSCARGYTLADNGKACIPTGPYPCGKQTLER
Sequence of Coagulation factor X (P00742 235-488 limits assumed): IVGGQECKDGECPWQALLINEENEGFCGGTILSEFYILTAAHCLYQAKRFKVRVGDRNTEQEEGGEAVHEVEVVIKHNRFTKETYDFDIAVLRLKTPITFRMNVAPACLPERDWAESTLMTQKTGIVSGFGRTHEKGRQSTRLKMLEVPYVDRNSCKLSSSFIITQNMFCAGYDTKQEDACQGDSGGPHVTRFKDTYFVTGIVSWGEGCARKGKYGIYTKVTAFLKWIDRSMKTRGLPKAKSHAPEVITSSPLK

For orientation: CC50 means the concentration giving 50% cytotoxicity. A word on the EC50: it is the concentration needed to bring the measured effect to its halfway point. In turn, `C=CCc1ccc(OCc2cn(Cc3ccccc3Br)nn2)c(OC)c1` displayed a CC50 at 24 h in [1] above 300000 nM. The EC50 in data set [2], in data set [3], in data set [4] and in data set [5] was 14000 nM throughout.

The molecule `O=C1C=C/C(=N\Nc2ccc([N+](=O)[O-])cc2Cl)C=C1C(=O)Nc1cccc(Cl)c1` had a CC50 at 42 h in [6] of 48800 nM. Further, the EC50 worked out at 1270 nM in data set [7], 810 nM in [8] and 1000 nM in data set [9].

For the molecule `Clc1cc(OCc2nnc3sc(Cc4ccccc4)nn23)c(Cl)cc1OCc1nnc2sc(Cc3ccccc3)nn12`, the EC50 in [10] was determined as 17000 nM. Moreover, the cytotoxic concentration (CC50) at 24 h in data set [11] was above 200000 nM.

By EC90 is commonly meant the concentration at which the effect reaches the 90% level. Take `Oc1cccc(-c2c3nc(c(-c4cccc(O)c4)c4ccc([nH]4)c(-c4cccc(O)c4)c4nc(c(-c5cccc(O)c5)c5ccc2[nH]5)CC4)C=C3)c1` [TEMOPORFIN]: it took 40700 nM to reach half-maximal cytotoxicity in data set [6] (CC50 at 42 h). For the same molecule, the EC50 came to 10 nM in data set [12] (A549, 42 h); 22 nM in data set [13]; 20 nM in data set [14]. Also, the EC90 in [12] (A549, time 42 hrs) is 30 nM.

With `Cc1ccc(C(=O)c2cc(O)c(O)c([N+](=O)[O-])c2)cc1` [TOLCAPONE], in data set [15], the half-maximal cytotoxic concentration (CC50) at 24 h came out at 29200 nM. The molecule also gave a 50% effective concentration (EC50) in [16] of 2000 nM.

Turning to `Oc1ccccc1C(Nc1nccs1)c1ccc2cccnc2c1O` (stereo not drawn), the K in data set [17] came to 3.4 µM.

In general, Ki refers to a dissociation constant, usually derived from enzyme kinetics or from competition with a known ligand. Take `N=C(N)N[C@H]1CC[C@H](CNC(=O)[C@H](CCCCN)NC(=O)[C@H](CCCCN)NC(=O)Cc2ccc(Cl)c(Cl)c2)CC1`: the figures for the Ki in data set [18] and in data set [19] were above 200000 nM and above 500000 nM, respectively.

In the case of `N=C(N)N[C@H]1CCCCNC(=O)[C@H](CCCCN)NC(=O)[C@H](CCCCN)NC(=O)CCNC(=O)CNC(=O)CNC1=O` (cyclo(GG[βAla]KK[X1])), in data set [20], affinity was put at a Ki of 160 nM.

In the case of `N=C(N)Nc1ccc(OC(=O)c2ccc(NC(=N)N)cc2)cc1`, in data set [21], the K was determined as 4.6 µM.

Regarding `O=C1OC2(c3ccccc31)c1cc(I)c(O)c(I)c1Oc1c2cc(I)c(O)c1I` [ERYTHROSINE], the EC50 in data set [8] stood at 1200 nM; in data set [9], 620 nM; in [22] it was 660 nM.

The term IC50 denotes the concentration at which inhibition is half-maximal. Molecule `NCc1ccc(-c2ncc(OCC3CCNCC3)nc2-c2ccc(-c3cn[nH]c3)cc2)cc1` had an IC50 in data set [23] of 200 nM.

On to `CCc1ccc(NC(=O)CSc2nc3ccc(NC(=O)CSc4nnc(-c5ccccc5)[nH]4)cc3s2)cc1`, for which, in [24], the K was 2.8 µM.
